Data on 19 molecules can be found in the OPERA property sets (Mansouri et al. 2018).

The logP is a log measure of how a compound divides between an organic and an aqueous phase. A high value points to a more lipophilic compound.

In the case of `COc1ccc2c(c1)OCC2NC(=O)CN1CCCCC1` (centres undefined), the lipophilicity (logP) came to 2.41.
With `Cc1ccc2c(c1)C(NC(=O)CN1CCCC1)CO2` (centres undefined), the logP came out at 2.24.
For `O=C(CN1CCCC1)NC1COc2ccc(Cl)cc21` (centres undefined), the logP was 2.47.
On to `Cc1ccc2c(c1)C(NC(=O)CN1CCOCC1)CO2` (centres undefined), for which the lipophilicity (logP) is 1.38.
Regarding `CCN(CC)CC(=O)NC1COc2ccc(C)cc21` (centres undefined), the logP came to 2.69.
With `CCN(CC)CC(=O)NC1COc2ccccc21` (centres undefined), the logP was 2.2.
Under `COc1ccc2c(c1)OCC2NC(=O)CN1CCCC1` (centres undefined) stands 1.92; under `CCCCN(CCCC)CC(=O)NC1COc2cc(OC)ccc21` (centres undefined), 4.24.
In the case of `O=C(CN1CCOCC1)NC1COc2ccccc21` (centres undefined), the log partition coefficient (logP) worked out at 0.81.
Take `CCN(CC)CC(=O)NC1COc2ccc(Cl)cc21` (centres undefined): the log partition coefficient (logP) amounted to 2.88.
Under `CCCCN(CCCC)CC(=O)NC1COc2ccc(C)cc21` (centres undefined) stands 4.43.
In turn, `COc1ccc2c(c1)OCC2NC(=O)CN1CCOCC1` (centres undefined) showed a logP of 0.92.
`O=C(CN1CCCC1)NC1COc2ccccc21` (centres undefined) registered a logP of 1.76.
In turn, `O=C(CN1CCCCC1)NC1COc2ccccc21` (centres undefined) showed a logP of 2.3.
In turn, `CCCCN(CCCC)CC(=O)NC1COc2ccc(Cl)cc21` (centres undefined) yielded a logP of 4.44.
Turning to `O=C(CN1CCCCC1)NC1COc2ccc(Cl)cc21` (centres undefined), the logP was 3.01.
In the case of `O=C(CN1CCOCC1)NC1COc2ccc(Cl)cc21` (centres undefined), the lipophilicity (logP) was determined as 1.55.
As for `Cc1ccc2c(c1)C(NC(=O)CN1CCCCC1)CO2` (centres undefined), the figure is 2.78.
In the case of `CCCCN(CCCC)CC(=O)NC1COc2ccccc21` (centres undefined), the lipophilicity (logP) amounted to 4.15.
